Assays:
[1] = test system: human colon carcinoma cells (HCT 116); assay: Transfection of HCT 116 cells with plasmid DNA/peptide complexes (with or without LIPOFECTIN), luciferase reporter gene expression; type: cell-based
Text: Complexes consisting in plasmid DNA, peptide and lipid were formed and used in transfection experiments of human colon carcinoma cells (HCT 116) in vitro. The luciferase reporter gene was used in order to measure the transfection efficiency.
In addition to the construction of the mentioned K16 peptides the invention consists in the construction of DNA-peptide-lipid-complexes. A critical issue is thereby the composition of the complexes through the selection of an appropriate peptide to DNA charge ratio as well as an appropriate amount of the lipid. The procedure of complex formation (involving concentrations, volume, buffer type, incubation time and the order by which the elements are sequentially added to the mixture, see FIGS. 1-3 and 4-6) is also a critical factor determining the transfection efficiency of the system.
Based on the above described procedure for the optimization of DNA-peptide-lipid-complexes different complexes containing plasmid DNA, the K16-CYC peptide and cationic liposome (LIPOFECTIN®) were formed and subsequently used in transfection experiments of HCT 116 cells.
Complexes were formed containing plasmid DNA, the K16-VprN peptide and cationic liposome (LIPOFECTIN®) and subsequently used in transfection experiments of HCT 116 cells.
In both applications, the K16-mVprN peptide was used as a control peptide instead of the K16-VprN peptide.

[2] = Dynamic light scattering of peptide/DNA complexes (apparent size, light scattering intensity); type: physicochemical; details: for relative size of the complexes on dilution: peptide/DNA complexes diluted up to 1:16, FIGS. 13 and 14
Description: In order to exclude the possibility that the observed enhancement of the transfection efficiency was mainly related to a more favorable complex formation process when using the K16-VprN peptide, size measurements (FIG. 11) and the determination of the relative particle number (FIG. 12) using dynamic light scattering were performed. […] Indeed, at a peptide to DNA charge ratio of 3 the K16-VprN peptide generates a three-fold increase of the light scattering intensity and an increase of the reporter gene expression of at least 100-times, as compared to K16-mVprN. At a peptide to DNA charge ratio of 9 the light scattering intensity increases twice as compared to charge ratio 3. However, in these conditions the reporter gene expression only increases 10 fold.
The complexes were subsequently diluted up to 1:16 and subjected to dynamic light scattering measurements.

[3] = peptide/DNA complex without lipid, FIG. 10

Substance | increase of the reporter gene expression compared to K16-mVprN ([1]; peptide to DNA charge ratio of 3, without lipid, FIG. 10) | increase of the reporter gene expression ([1]; peptide to DNA charge ratio of 9, without lipid, FIG. 10) [fold] | amount of peptide giving the highest gene expression, less than for K16-mVprN [1, 3] [times] | increase of the maximum reporter gene expression level compared to K16-mVprN [1, 3] [fold] | reporter gene expression compared to the control peptide K16-mVprN ([1]; with and without LIPOFECTIN, FIGS. 9 and 10) | particle size of DNA complexes compared to K16-mVprN ([2]; dynamic light scattering, FIG. 11) | increase of the light scattering intensity compared to K16-mVprN ([2]; peptide to DNA charge ratio of 3, FIG. 12) | increase of light scattering intensity compared to charge ratio 3 ([2]; peptide to DNA charge ratio of 9, FIG. 12) | relative size of the complexes on dilution ([2]; dynamic light scattering) | reporter gene expression following transfection, compared to the K16-NLS peptide ([1]; complexes of plasmid DNA, peptide and LIPOFECTIN (0.5 or 1 μl), FIGS. 7 and 8)
KKKKKKKKKKKKKKKKGGGCNEWTLELLEELKNEAVRHF [K16-VprN] | at least 100 times | 10 | 12 | 10 | significant increase | no significant difference | three-fold | twice | remains nearly constant | –
-VKLKVYPLKKKRKP- [K16-CYC] | – | – | – | – | – | – | – | – | – | dramatic increase
KKKKKKKKKKKKKKKKGGGNEATLELLPELKNPAVRHF (Synthetic peptide sequence, K16-mVprN, that carries 16 lysine residues for the binding of the peptide to the plasmid DNA.) | – | – | – | – | – | – | – | – | remains nearly constant | –

— patent US6881577B2, “Method for improving transfection efficiency” (Max-Delbrück-Centrum für Molekulare Medizin, priority 2000, dated 2005)
